Data on 68 compounds can be found in ChEMBL document CHEMBL3727362, “Tetrahydronaphthyridine and tetrahydropyrido[4,3-D]pyrimidine compounds and compositions thereof useful for the treatment of inflammatory and respiratory diseases” (2014).

Each structure is given as a SMILES string.

One experiment has as its target T1, P2X2/P2X3 heterotrimeric receptor (Homo sapiens) (UniProt Q9UBL9+P56373). The experiment in a line: Antagonist activity against human P2X2/3 receptor expressed in HEK293/1321N1 cells assessed as inhibition of alpha,beta-meATP/ATP-induced calcium influx at 3 uM by Fluo-4 dye based FLIPR assay. The experiment is classed as functional, cell-based.
With `Cc1ccc(N2CCc3ncnc(NCCc4ccc(Cl)cc4)c3C2)nc1`, the inhibition was above 75%.
On the same count and under the same terms, the figure for `Cc1ccc(N2CCc3ncnc(NCc4ccccc4OC(F)F)c3C2)nc1` is above 75%; for `O=S(=O)(c1ccc(Nc2ncnc3c2CN(c2ncccc2Cl)CC3)cc1)C(F)(F)F` it is 0%.
Consider `Cc1ccc(N2CCc3ncnc(N(C)Cc4ccc(C(F)(F)F)cc4)c3C2)nc1`, for which the inhibition turned out to be 0%.
With `Cc1ccc(N2CCc3ncnc(NCc4cccc(Cl)c4)c3C2)nc1`, the inhibition was above 75%.
Still for that read-out and setting: for `CN1CC(C)(C)c2ccc(Nc3ncnc4c3CN(c3ncccc3Cl)CC4)cc21` the value was 0%.
On the same count and under the same terms, the figure for `CCc1ccc(CN(C)c2ncnc3c2CN(c2ccc(C)cn2)CC3)cc1` is 0%.
Same read-out and setting: the figure for `Cc1ccc(N2CCc3ncnc(NCc4cc(F)cc(C(F)(F)F)c4)c3C2)nc1` is 0%; for `Cc1ccc(N2CCc3ncnc(N(C)Cc4cccc(Cl)c4)c3C2)nc1` it is 0%; for `Cc1ccc(N2CCc3ncnc(NCc4cc(F)ccc4F)c3C2)nc1` it is 50%.
As to `COc1ccc(CN(C)c2ncnc3c2CN(c2ccc(C)cn2)CC3)cc1`, the inhibition is 0%.
The same measure, in the same setting: the figure for `COc1cc(CCNc2ncnc3c2CN(c2ccc(C)cn2)CC3)cc(OC)c1` is 50%; for `Cc1ccc(CN(C)c2ncnc3c2CN(c2ccc(C)cn2)CC3)cc1` it is 25%.
Take `COc1ccc(CN(C)c2ncnc3c2CN(c2ccc(C)cn2)CC3)cc1OC`: the inhibition stood at 25%.
On the same count and under the same terms, for `COc1ccccc1CN(C)c1ncnc2c1CN(c1ccc(C)cn1)CC2` the value was 0%.
Still for that read-out and setting: the figure for `Cc1ccc(N2CCc3ncnc(NCc4ccc(Cl)cc4F)c3C2)nc1` is 50%; for `COc1cc(CNc2ncnc3c2CN(c2ccc(C)cn2)CC3)cc(OC)c1` it is 0%.
For the compound `Cc1ccc(N2CCc3ncnc(NCCc4cccc(C(F)(F)F)c4)c3C2)nc1`, the inhibition is above 75%.
On the same count and under the same terms, for `Cc1ccc(N2CCc3ncnc(NCc4ccc(Cl)cc4Cl)c3C2)nc1` the value was 0%.
Still for that read-out and setting: for `Cc1ccc(N2CCc3ncnc(NCc4cc(C(F)(F)F)ccc4F)c3C2)nc1` the value was 0%; for `Cc1ccc(N2CCc3ncnc(NCc4ccc(C(C)(C)C)cc4)c3C2)nc1`, 0%.
On the same count and under the same terms, for `Cc1ccc(N2CCc3ncnc(NCc4ccccc4Cl)c3C2)nc1` the value was above 75%; for `Cc1ccc(N2CCc3ncnc(NCc4ccccc4C(F)(F)F)c3C2)nc1`, 50%.
Turning to `Cc1ccc(N2CCc3ncnc(NCc4ccc(C)cc4C)c3C2)nc1`, the inhibition is 25%.
Still for that read-out and setting: for `Cc1ccc(N2CCc3ncnc(NCc4cc(C(F)(F)F)cc(C(F)(F)F)c4)c3C2)nc1` the value was 0%; for `COc1ccc(CCNc2ncnc3c2CN(c2ccc(C)cn2)CC3)cc1OC`, 50%; for `Cc1ccc(N2CCc3ncnc(N(C)Cc4ccc(F)cc4)c3C2)nc1`, 0%.
Same read-out and setting: the figure for `Cc1ccc(N2CCc3ncnc(NCc4ccc(F)c(C(F)(F)F)c4)c3C2)nc1` is 0%.
The same measure, in the same setting: the figure for `COc1cccc(CCNc2ncnc3c2CN(c2ccc(C)cn2)CC3)c1` is above 75%; for `Cc1ccc(N2CCc3ncnc(NCc4ccccc4OC(F)(F)F)c3C2)nc1` it is above 75%.
As for `Cc1ccc(N2CCc3ncnc(NCCc4ccccc4)c3C2)nc1`, the inhibition was above 75%.
The same measure, in the same setting: the figure for `Cc1ccc(N2CCc3ncnc(NCc4cc(Cl)cc(Cl)c4)c3C2)nc1` is 0%; for `COc1cccc(CNc2ncnc3c2CN(c2ccc(C)cn2)CC3)c1` it is above 75%.
Same read-out and setting: for `Cc1ccc(N2CCc3ncnc(NCc4ccc(OC(F)(F)F)cc4)c3C2)nc1` the value was 50%; for `Cc1ccc(N2CCc3ncnc(NCCc4ccc(Cl)c(Cl)c4)c3C2)nc1`, 50%.
On the same count and under the same terms, the figure for `Cc1ccc(N2CCc3ncnc(NCc4cccc(F)c4F)c3C2)nc1` is above 75%; for `Cc1ccc(N2CCc3ncnc(NCc4ccc(F)c(C)c4)c3C2)nc1` it is above 75%.
Turning to `Cc1ccc(N2CCc3ncnc(NCc4ccc5c(c4)OCO5)c3C2)nc1`, the inhibition is above 75%.
In the case of `COc1ccc(CNc2ncnc3c2CN(c2ccc(C)cn2)CC3)cc1`, the inhibition was above 75%.
On the same count and under the same terms, for `Cc1ccc(N2CCc3ncnc(NCc4ccc(C(F)(F)F)cc4)c3C2)nc1` the value was above 75%; for `Cc1ccc(N2CCc3ncnc(NCc4ccc(F)c(F)c4)c3C2)nc1`, above 75%.
Same read-out and setting: for `Cc1ccc(N2CCc3ncnc(N(C)Cc4ccccc4)c3C2)nc1` the value was 0%.
On the same count and under the same terms, the figure for `Cc1ccc(N2CCc3ncnc(NCc4ccc(C(F)(F)F)cc4F)c3C2)nc1` is above 75%.
With `Cc1ccc(N2CCc3ncnc(NCc4cc(Cl)ccc4F)c3C2)nc1`, the inhibition worked out at 50%.
As to `Cc1ccc(N2CCc3ncnc(NC(C)c4ccc(F)cc4)c3C2)nc1` (centres undefined), the inhibition was above 75%.
Still for that read-out and setting: for `Cc1ccc(N2CCc3ncnc(NCc4ccc(C(C)C)cc4)c3C2)nc1` the value was 0%.
On the same count and under the same terms, for `Cc1ccc(N2CCc3ncnc(NCCc4ccccc4Cl)c3C2)nc1` the value was above 75%; for `Cc1ccc(N2CCc3ncnc(NCc4ccc(Cl)c(Cl)c4)c3C2)nc1`, 0%.
On the same count and under the same terms, for `Cc1ccc(N2CCc3ncnc(NCc4cccc(F)c4)c3C2)nc1` the value was above 75%; for `Cc1ccc(N2CCc3ncnc(N(C)Cc4ccc(Cl)cc4)c3C2)nc1`, 0%.
Regarding `Clc1cccnc1N1CCc2ncnc(Nc3ccccc3)c2C1`, the inhibition worked out at 0%.
Same read-out and setting: for `Cc1ccc(CNc2ncnc3c2CN(c2ccc(C)cn2)CC3)cc1` the value was above 75%; for `Cc1ccc(N2CCc3ncnc(NCc4cc(C(F)(F)F)ccc4Cl)c3C2)nc1`, 0%.
Same read-out and setting: the figure for `Cc1ccc(N2CCc3ncnc(NCc4ccc(Cl)cc4)c3C2)nc1` is above 75%; for `Cc1ccc(CCNc2ncnc3c2CN(c2ccc(C)cn2)CC3)cc1` it is above 75%; for `Cc1ccc(N2CCc3ncnc(NCc4cccc(C(F)(F)F)c4)c3C2)nc1` it is 50%.
On the same count and under the same terms, for `Cc1ccc(N2CCc3ncnc(NCc4cccc(C)c4C)c3C2)nc1` the value was 0%; for `COc1cccc(CN(C)c2ncnc3c2CN(c2ccc(C)cn2)CC3)c1`, 0%; for `COc1ccc(CCNc2ncnc3c2CN(c2ccc(C)cn2)CC3)cc1`, above 75%.

In a further experiment the target is T1, P2X2/P2X3 heterotrimeric receptor (Homo sapiens). The experiment in a line: Antagonist activity against human P2X2/3 receptor expressed in HEK293/1321N1 cells assessed as inhibition of alpha,beta-meATP/ATP-induced calcium influx at 10 uM by Fluo-4 dye based FLIPR assay. The experiment is classed as functional, cell-based.
Take `CC1(C)CNc2cc(Nc3ncnc4c3CN(c3ncccc3Cl)CC4)ccc21`: the inhibition worked out at 0%.
On to `COc1ccc(CN(C)c2ncnc3c2CN(c2ccc(C)cn2)CC3)cc1OC`, for which the inhibition was above 75%.
Still for that read-out and setting: the figure for `Cc1ccc(N2CCc3ncnc(Nc4ccc(C(F)(F)F)cc4)c3C2)cc1` is 0%; for `Cc1ccc(N2CCc3ncnc(NCCc4cccc(C(F)(F)F)c4)c3C2)nc1` it is above 75%; for `Cc1ccc(N2CCc3ncnc(N(C)Cc4ccc(F)cc4)c3C2)nc1` it is 50%.
Still for that read-out and setting: the figure for `COc1cccc(CNc2ncnc3c2CN(c2ccc(C)cn2)CC3)c1` is above 75%; for `Cc1ccc(N2CCc3ncnc(NCC4(O)CCCC(C)(C)C4)c3C2)nc1` (centres undefined) it is 0%.
The same measure, in the same setting: for `FC(F)(F)c1ccc(Nc2ncnc3c2CN(c2ncccc2Cl)CC3)cn1` the value was 0%; for `CC1(C)C(=O)Nc2cc(Nc3ncnc4c3CN(c3ncccc3Cl)CC4)ccc21`, 0%; for `Cc1ccc(N2CCc3ncnc(NCC4CCCCC4)c3C2)nc1`, above 75%.
Regarding `Cc1ccc(N2CCc3ncnc(NCCc4ccccc4Cl)c3C2)nc1`, the inhibition is above 75%.
The same measure, in the same setting: for `Cc1ccccc1N1CCc2ncnc(Nc3ccc(C(F)(F)F)cc3)c2C1` the value was 0%; for `Cc1ccc(N2CCc3ncnc(NCc4cc(C(F)(F)F)ccc4Cl)c3C2)nc1`, 0%.
Consider `COc1ccccc1CNc1ncnc2c1CN(c1ccc(C)cn1)CC2`, for which the inhibition was above 75%.
Same read-out and setting: for `Cc1ccc(N2CCc3ncnc(NCc4ccccc4C)c3C2)nc1` the value was above 75%.
